Measured values taken from patent publication US9145444B2, “Compounds and methods associated with differential methylation of human papilloma virus genomes in epithelial cells” (Ruprecht-Karls-Universität Heidelberg, priority 2007, dated 2015).

Key:
early p97 HPV16 promoter = assay: luciferase assay of p97 promoter activity in keratinocytes transfected with LCR16_Luc; format: cell-based, human
Description: The impact of treatment with epigenetic inhibitors (demethylation agents) on the activity of the p97 promoter is assessed using luciferase assay. Normal human keratinocytes transfected with the reporter plasmid LCR16_Luc, which contains the complete LCR fragment of the HPV-16 cloned in front of the luciferase gene were grown to about 50-60% confluence. Cells were treated with 2 μM and 4 μM 5-azacytidin for 24 and 72 hs.

[1] = phase I and II trials, systemic therapy; cited from earlier work
normal human firoblasts = details: normal human fibroblasts; cited from earlier work

Compound	p97 promoter activity reduced to (early p97 HPV16 promoter; 2 μM, undifferentiated or differentiated cells, FIG. 9)	p97 promoter activity (early p97 HPV16 promoter; 4 μM, undifferentiated and differentiated cells, FIG. 9)	activity of the early p97 promoter (early p97 HPV16 promoter; normal human keratinocytes, LCR16_Luc reporter, 2 μM and 4 μM for 24 and 72 hs)	dose-limiting toxicity [1]	most commonly reported non-hematologic adverse effect [1]	basal level and TGFβ-induced collagen biosynthesis (normal human firoblasts)
Nc1ncn([C@@H]2O[C@H](CO)[C@@H](O)[C@H]2O)c(=O)n1 [5-azacytidine, 5-Azacytidine]	40-60%	significantly reduced to the basal level	decreased the activity of the early p97 promoter in a dose dependent manner	myelosuppression	nausea and vomiting	inhibits
Nc1ncn([C@H]2C[C@H](O)[C@@H](CO)O2)c(=O)n1 [decitabine, 5-Aza-20-deoxycytidine]				myelosuppression	nausea and vomiting	
